Reference: paper PMC10646256, “Scutellarin Rescued Mitochondrial Damage through Ameliorating Mitochondrial Glucose Oxidation via the Pdk‐Pdc Axis” (Advanced Science, 2023)

Target: pyruvate dehydrogenase kinase 2 (PDK2) (Homo sapiens, UniProt Q15119)
Test: mobility shift kinase assay with purified GST-PDK2; supported by DARTS, CETSA, co-IP-MS and LiP-MS
Assay type: biochemical

## O=C(O)[C@H]1O[C@@H](Oc2cc3oc(-c4ccc(O)cc4)cc(=O)c3c(O)c2O)[C@H](O)[C@@H](O)[C@@H]1O [SG, Scutellarin]
  mobility shift kinase assay with purified GST-PDK2; supported by DARTS, CETSA, c: SG had significantly higher inhibitory activity against PDK2 than DCA at multiple concentrations
